Consider 9 compounds from patent US8440424B2, “Identification of antibiotic resistance using labelled antibiotics” (miacom Diagnostics GmbH, priority 2008, dated 2013).

The test system of experiment [1] is High level Aminoglycoside Resistance in Enterococci (HLAR). The experiment is described as follows: Binding of fluorescent labelled antibiotic, resistant vs non-resistant form: HLAR. The following applies: reduction in Streptomycin binding; HLAR Enterococci relative to non-resistant form; fluorescent label. The method, then: (§1) An in-situ hybridisation protocol may be applied as laid down in patent application EP 06 021 267.7, which is incorporated herein by reference. The incubation with a labelled antibiotic may be performed at temperatures below the Tm of the hybridised probe. In a preferred embodiment the temperature is between about 25 and about 65° C., in a more preferred embodiment the temperature is between about 35° C. and about 59° C. In an even more preferred embodiment, the temperature is at about 52° C. The incubation time is preferably between about 1 and about 30 minutes. In a more preferred embodiment the incubation is made for about 15 minutes. After the incubation the slide may be submerged in 50% ethanol followed by a bath in pure ethanol. Both steps may be run for between about 1 and about 10 minutes. The preferred length of incubation is between about 2 and about 6 minutes. It is more preferred to incubate about 4 minutes. […]
(§2) An antibiotic resistance, such as a resistance against penicillin, may be detected in a protocol comprising the steps:
(§3) Table 4 indicates the alteration of the amount of detectable labelled antibiotics in clinically relevant micro-organisms in its resistant form relative to its non-resistant form. The amount is expressed in % change of fluorescence (decrease and increase, respectively) of an antibiotic which carries a fluorescent label.

Another experiment has as its system 23S rRNA. As to conditions: cited from earlier work.
In experiment [2] the test system is Extended Spectrum β-Lactamase (ESBL) Enterobacteriaceae. The experiment is described as follows: Binding of fluorescent labelled clavulanic acid: ESBL Enterobacteriaceae. As to conditions: increase, ESBL Enterobacteriaceae relative to non-resistant form. As to the method:
as §1, §2, §3

In experiment [3] the test system is Extended Spectrum β-Lactamase (ESBL) Pseudomonas spp. The experiment is described as follows: Binding of fluorescent labelled clavulanic acid: ESBL Pseudomonas spp. As to conditions: increase, ESBL Pseudomonas spp. relative to non-resistant form. The method, then: as §1, §2, §3
The subject of experiment [4] is Extended Spectrum β-Lactamase (ESBL) Acinetobacter. Briefly: Binding of fluorescent labelled clavulanic acid: ESBL Acinetobacter. As to conditions: increase, ESBL Acinetobacter relative to non-resistant form. The method, then: as §1, §2, §3
In experiment [5] the test system is Extended Spectrum β-Lactamase (ESBL) BCC. Briefly: Binding of fluorescent labelled clavulanic acid: ESBL BCC. The following applies: increase, ESBL BCC relative to non-resistant form. The method, then: as §1, §2, §3
The subject of experiment [6] is Extended Spectrum β-Lactamase (ESBL) Stenotrophomonas maltophilia. Briefly: Binding of fluorescent labelled clavulanic acid: ESBL Stenotrophomonas maltophilia. As to conditions: increase, ESBL Stenotrophomonas maltophilia relative to non-resistant form. The method, then: as §1, §2, §3
Experiment [7] relates to Community acquired MRSA (CA-MRSA). Format: binding, Staphylococcus aureus.
Experimental: The incubation with a labelled antibiotic may be performed at temperatures below the Tm of the hybridised probe. In a preferred embodiment the temperature is between about 25 and about 65° C., in a more preferred embodiment the temperature is between about 35° C. and about 59° C. In an even more preferred embodiment, the temperature is at about 52° C. The incubation time is preferably between about 1 and about 30 minutes. In a more preferred embodiment the incubation is made for about 15 minutes. After the incubation the slide may be submerged in 50% ethanol followed by a bath in pure ethanol. Both steps may be run for between about 1 and about 10 minutes. The preferred length of incubation is between about 2 and about 6 minutes. It is more preferred to incubate about 4 minutes. The slides may then be air-dried (e.g. on a hot plate) and the cells may be embedded in a balanced salt mounting medium.
Experiment [8] relates to Vancomycin resistant SA (VRSA). Briefly: Binding of fluorescent labelled antibiotic, resistant vs non-resistant form: VRSA. Also noted: species or system Staphylococcus aureus. As to conditions: binding of labelled Vancomycin relative to non-resistant form.
Excerpt: (§4) Another preferred application is the detection of the binding of Vancomycin to surface proteins of Staphylococcus aureus which are anchored to the cell wall peptidoglycan. Vancomycin resistant Staphylococci bind the antibiotic to such an extent that it renders Vancomycin ineffective. Labelled Vancomycin therefore will preferably bind to resistant organisms.
(§5) An in-situ hybridisation protocol may be applied as laid down in patent application EP 06 021 267.7, which is incorporated herein by reference. The incubation with a labelled antibiotic may be performed at temperatures below the Tm of the hybridised probe. In a preferred embodiment the temperature is between about 25 and about 65° C., in a more preferred embodiment the temperature is between about 35° C. and about 59° C. In an even more preferred embodiment, the temperature is at about 52° C. The incubation time is preferably between about 1 and about 30 minutes. […]
as §2, §3

For experiment [9], the system named is Vancomycin resistant Staph (VRS). Briefly: Binding of fluorescent labelled antibiotic, resistant vs non-resistant form: VRS. Also noted: species or system Staphylococci (CNS). As to conditions: increased binding of Vancomycin; VRS relative to non-resistant form; fluorescent label.
Excerpt: as §4, §5, §2, §3

For experiment [10], the system named is Vancomycin intermediary SA (VISA). Briefly: Binding of fluorescent labelled antibiotic, resistant vs non-resistant form: VISA. Also noted: species or system Staphylococcus aureus. As to conditions: increased binding of Vancomycin; VISA relative to non-resistant form; fluorescent label. As to the method:
as §1, §2, §3

In experiment [11] the test system is Vancomycin resistant Enterococci (VRE). Briefly: Binding of fluorescent labelled antibiotic, resistant vs non-resistant form: VRE. The following applies: reduction of vancomycin binding; VRE relative to non-resistant form; fluorescent label. As to the method: as §1, §2, §3
Experiment [12] shares this test system. As to conditions: stated as resistance mechanism; cited from earlier work.
Experiment [13] deals with Methicillin Resistant Staphylococcus aureus (MRSA). The experiment is described as follows: Binding of fluorescent labelled antibiotic, resistant vs non-resistant form: MRSA. The following applies: reduction of Penicillin binding; MRSA relative to non-resistant form; antibiotic carries a fluorescent label. As to the method:
as §1, §2, §3

Experiment [14] has as its system Border.line oxacillin resistant SA (BORSA). The experiment is described as follows: Binding of fluorescent labelled antibiotic, resistant vs non-resistant form: BORSA. On the set-up: species or system Staphylococcus aureus. The following applies: reduction of penicillin binding; BORSA relative to non-resistant form; fluorescent label. The method, then: as §1, §2, §3

In experiment [15] the test system is Oxacillin resistant SA (ORSA). Briefly: Binding of fluorescent labelled antibiotic, resistant vs non-resistant form: ORSA. The following applies: reduction of penicillin binding; ORSA relative to non-resistant form; fluorescent label. On the set-up: species or system Staphylococcus aureus. The method, then:
as §1, §2, §3

Like-named read-outs stand apart in the source and are kept apart here.

`[H]/N=C(/N)N[C@H]1[C@H](O)[C@@H](O)[C@H](O[C@@H]2O[C@@H](C)[C@](O)(C=O)[C@H]2O[C@@H]2O[C@@H](CO)[C@H](O)[C@@H](O)[C@@H]2NC)[C@@H](N/C(N)=N\[H])[C@@H]1O` [Streptomycin, reference compound]: the “% Change in Fluorescenc” value in experiment [1] is over 80%. The Phenotype entry in the experiment on 23S rRNA (23S rRNA position 2661 "G to C", E. coli, when expressed with Smr, hyperaccurate S12 mutation) is given as “streptomycin dependent”.
Take `O=C(O)[C@H]1/C(=C/CO)O[C@@H]2CC(=O)N21` [clavulanic acid]: the “% Change in Fluorescenc” value in [2], in experiment [3], in experiment [4], in [5] and in [6] was over 80% each time.
As for `COc1cc(Cc2cnc(N)nc2N)cc(OC)c1OC` [trimethoprim, Trimethoprim], the “Effect of resistance on fluorescence” value in experiment [7] (CA-MRSA, binding capacity for the labelled antibiotic) was “Maintaims binding”.
On to `CN[C@H](CC(C)C)C(=O)N[C@H]1C(=O)N[C@@H](CC(N)=O)C(=O)N[C@H]2C(=O)N[C@H]3C(=O)N[C@H](C(=O)N[C@H](C(=O)O)c4cc(O)cc(O)c4-c4cc3ccc4O)[C@H](O)c3ccc(c(Cl)c3)Oc3cc2cc(c3O[C@@H]2O[C@H](CO)[C@@H](O)[C@H](O)[C@H]2O[C@H]2C[C@](C)(N)[C@H](O)[C@H](C)O2)Oc2ccc(cc2Cl)[C@H]1O` [Vancomycin], for which the “Effect of resistance on fluorescence” value in experiment [8] is reported as “Increased”. The “% Change in Fluorescenc” value in experiment [9] is recorded as over 50%; in experiment [10] it was 20-50%; in [11] it was over 80%. In addition, in [12], the “Reduced affinity to Van” value was “Reduced affinity to Van by 3 orders of magnitude”.
With `O=C(N[C@H](CO)[C@H](O)c1ccc([N+](=O)[O-])cc1)C(Cl)Cl` [CAM], in the experiment on 23S rRNA (23S rRNA position 2505 G to C (with A1067U and thiostrepton), E. coli, Saarma 1992, 1993), the Phenotype entry is recorded as “Hypersensitivity to CAM;”.
Consider spiramycin, for which the Phenotype result is reported as “spiramycin resistance” in the experiment on 23S rRNA (23S rRNA position 2611 "C to G", Chlamydomonas reinhardtii, Gauthier et al. 1988); “spiramycin resistance” in the experiment on 23S rRNA (23S rRNA position 2611 "C to G", Yeast mitochondria, Sor and Fukahara 1984).
In the case of `CC[C@H]1OC(=O)[C@H](C)[C@@H](O[C@H]2C[C@@](C)(OC)[C@@H](O)[C@H](C)O2)[C@H](C)[C@@H](O[C@@H]2O[C@H](C)C[C@H](N(C)C)[C@H]2O)[C@](C)(OC)C[C@@H](C)C(=O)[C@H](C)[C@@H](O)[C@]1(C)O` [Clarithromycin], in the experiment with 23S rRNA (23S rRNA position 2058 A to G, Helicobacter pylori), the Phenotype entry is on record as “resistance”.
On to Penicillin, for which the “% Change in Fluorescenc” value is recorded as “> to ≈80%” in experiment [13]; “> to ≈80%” in [7] (reduction of penicillin binding, CA-MRSA relative to non-resistant form, antibiotic carries a fluorescent label); “> to ≈80%” in experiment [14]; “> to ≈80%” in experiment [15].
With `CCC[C@@H]1C[C@@H](C(=O)N[C@@H]([C@H]2O[C@H](SC)[C@H](O)[C@@H](O)[C@H]2O)[C@@H](C)O)N(C)C1` [Lincomycin], the Phenotype result in the experiment with 23S rRNA (23S rRNA position 2032 G to A, Tobbaco chloroplasts) is given as “resistance”; in the experiment on 23S rRNA (23S rRNA position 2058 A to G, Chlamydomonas reinhardtii), “resistance”; in the experiment with 23S rRNA (23S rRNA position 2058 A to G, Solanum nigrum), “resistance”; in the experiment with 23S rRNA (23S rRNA position 2058 A to G, Tobacco chloroplasts) it was “resistance”; with 23S rRNA (23S rRNA position 2059 A to G, Tobacco chloroplasts) it was “resistance”.
